{"source": "paper PMC12016938", "about": "“A small molecule PKCε inhibitor reduces hyperalgesia induced by paclitaxel or opioid withdrawal” (JCI Insight, 2025)", "key": {"[1]": {"experiment": "Plasma protein binding, equilibrium dialysis (RED)", "type": "in vitro ADME, human", "settings": "for % Recovery / recovery at 4 h, 10 µM: PBS + Plasma relative to starting concentration of 10 uM", "protocol": "Plasma protein binding. Binding of CP612 to human plasma proteins was measured by equilibrium dialysis using a Rapid Equilibrium Dialysis (RED) Device (Thermo Fisher Scientific). The device uses plates with wells preloaded with equilibrium dialysis membrane inserts, each of which includes 2 side-by-side chambers separated by a dialysis membrane. […] All compounds were tested in triplicate. […] A total of 200 μL of diluted test compound was then added to the plasma chambers of triplicate wells of a 48-sample RED plate (Thermo Fisher Scientific). In total, 400 μL of 0.1M PBS buffer were added to each buffer chamber. The plate was sealed with adhesive foil and incubated at 37°C with shaking for 4 hours, after which 30 μL were removed from each chamber and diluted with either 30 μL of plasma (for buffer chamber samples) or 30 μL of 0.1M PBS (for plasma chamber samples). Samples were extracted with 3 volumes of acetonitrile, centrifuged at 16,000g at 4°C for 10 minutes, and analyzed by LC-MS to calculate the amount of drug in each chamber. The percentage of free compound was calculated as the concentration in the buffer chamber/concentration in the plasma chamber × 100%. The percentage of protein-bound compound was calculated as 100% – the percentage of free compound."}, "Microsomal clearance": {"experiment": "Microsomal clearance", "settings": "for half-life at 8.5 μM: both, human, microsomes; for % Absolute: human liver microsomes (HLM)", "protocol": "Microsomal clearance. To determine if CP612 was a likely substrate for first-pass hepatic metabolism, we measured the stability of CP612 in the presence of human liver microsomes (BioIVT) pooled from over 100 male and female individuals. […] Test compounds were diluted to 10 μM in 0.1M PBS, and then 51 μL were dispensed in quadruplicate into wells of a 96-well plate, which was shaken at 600 rpm at 37°C. Reactions were initiated by adding 1.5 μL of microsomes (20 mg/mL) to the wells and 3 minutes later adding 7.5 μL of 8 mM NADPH (1 mM final concentration). Samples incubated without NADPH were used as negative controls."}, "PKCε": {"target": "T1, PKCε (Homo sapiens, UniProt Q02156)", "T1 sequence (Q02156 1-737)": "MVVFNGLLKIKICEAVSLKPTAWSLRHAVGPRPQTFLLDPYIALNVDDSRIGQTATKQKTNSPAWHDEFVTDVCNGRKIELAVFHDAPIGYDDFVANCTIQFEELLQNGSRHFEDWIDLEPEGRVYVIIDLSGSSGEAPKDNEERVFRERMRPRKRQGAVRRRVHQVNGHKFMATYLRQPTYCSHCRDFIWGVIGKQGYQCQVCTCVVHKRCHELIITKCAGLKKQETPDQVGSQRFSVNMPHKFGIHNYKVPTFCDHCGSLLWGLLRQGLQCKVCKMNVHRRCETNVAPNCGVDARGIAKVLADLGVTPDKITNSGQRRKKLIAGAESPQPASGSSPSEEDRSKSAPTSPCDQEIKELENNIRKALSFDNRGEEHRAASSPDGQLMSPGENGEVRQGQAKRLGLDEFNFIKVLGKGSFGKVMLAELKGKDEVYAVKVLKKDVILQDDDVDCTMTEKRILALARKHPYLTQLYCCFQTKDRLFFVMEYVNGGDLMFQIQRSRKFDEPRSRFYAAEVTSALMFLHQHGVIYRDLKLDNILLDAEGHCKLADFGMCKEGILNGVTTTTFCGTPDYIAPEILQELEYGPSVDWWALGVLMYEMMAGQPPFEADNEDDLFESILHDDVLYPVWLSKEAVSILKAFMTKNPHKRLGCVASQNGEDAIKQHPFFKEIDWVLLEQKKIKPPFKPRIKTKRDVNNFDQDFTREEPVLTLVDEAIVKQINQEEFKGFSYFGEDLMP", "experiment": "PKCε activity with increasing ATP and CP612 (ATP competition)", "type": "biochemical", "set-up": "His; AVI; made in house; host or cells: Sf9 cells", "settings": "without CP612; 95% CI 2.23–7.61 μM", "protocol": "Therefore, we assayed PKCε activity with increasing concentrations of ATP and in the presence of increasing concentrations of CP612.\nKinase assays. CP612 was assayed against His-AVI–tagged human PKCε (1 nM) produced in Sf9 cells, and ROCK1 (Carna Biosciences; 5 nM) using the Lance-FRET kinase assay system (PerkinElmer Revvity). Other human recombinant PKCs (SignalChem Biotech) were assayed in triplicate at the following concentrations: PKCβII 1.6 nM, PKCγ 500 pM, PKCδ 5 nM, PKCθ 500 pM, and PKCζ 500 pM. PKCs were incubated in a 15 μL reaction volume with kinase buffer (20 mM Tris-HCL [pH 7.4], 10 mM MgCl2, 0.25 mM EGTA, 0.1 mg/mL BSA, and 0.15% Triton X-100), 50 nM ULight-labeled CREBtide […] (PerkinElmer, TRF0107, Revvity), and test compound. […] after 60 minutes with 10 μL of 2.5× Stop Solution/Detection Mix containing 20 mM EDTA and 4 nM LANCE Ultra Europium anti–phospho-[…] peptide antibody (PerkinElmer, TRF0200, Revvity). After incubation at 27°C for another 60 minutes, phosphorylation was detected using a FlexStation 3 Microplate Reader (Molecular Devices) in LANCE TR-FRET mode (excitation = 340 nm, emission = 665 nm) and expressed as relative fluorescence units (RFU). The percentage of inhibition was calculated as: (signal without test compound − signal with test compound)/(signal without test compound − signal without ATP) × 100. The Z’ factor for this assay ranged between 0.72 and 0.86."}, "Plasma stability": {"experiment": "Plasma stability", "settings": "for % Absolute: human plasma (hPL); for half-life: human", "method": "Plasma stability. To determine in vitro plasma stability, we calculated in vitro plasma half-life. We incubated test substances (0.6 μL) with 60 μL human plasma (BioIVT) in quadruplicate at 37°C."}, "[2]": {"settings": "(Corrected concentration in PBS / Corrected concentration in Plasma) * 100, individual replicates"}, "[3]": {"settings": "human, individual replicates, read-out: % Recovery"}, "[4]": {"settings": "human, mean of replicates, read-out: % Recovery, Mean"}, "[5]": {"settings": "time 0 min, individual replicates"}, "[6]": {"settings": "time 15 min, individual replicates"}, "[7]": {"settings": "time 30 min, individual replicates"}, "[8]": {"settings": "time 60 min, individual replicates"}}, "note": "Several values for one entry are separate records, joined by “and”; a condition that tells them apart may be missing. Equal values may be shown once. Read-outs that look alike come from different tables or passages of the source.", "data": [{"smiles": "COCCc1ccc(OCC(O)CNC(C)C)cc1", "note": "(stereo not shown) [Metoprolol, metoprolol]", "values": [{"measurement": "% Free", "setting": "[1]; [2]", "result": 91.52, "unit": "%"}, {"measurement": "% Recovery", "setting": "[1]; individual replicates", "result": "70.00% and 78.51%"}, {"measurement": "recovery at 4 h, 10 µM", "setting": "[1]; [3]", "result": 66.7, "unit": "%"}, {"measurement": "recovery at 4 h, 10 µM", "setting": "[1]; [4]", "result": 71.8, "unit": "%"}, {"measurement": "% Bound", "setting": "[1]; individual replicates", "result": "8.48% and 10.85%"}]}, {"smiles": "C[C@]12CC[C@H]3[C@@H](CCC4=CC(=O)CC[C@@]43C)[C@@H]1CC[C@@H]2O", "note": "[Testosterone]", "values": [{"measurement": "t1/2 (half life)", "setting": "Microsomal clearance; HLM, individual replicates, time axis in min", "result": "14.3079 and 11.3615 and 11.8498"}, {"measurement": "half-life at 8.5 μM", "setting": "Microsomal clearance; Microsomal clearance t½ (min), human liver microsomes, NADPH", "result": "12.7 ± 1.37", "unit": "min"}, {"measurement": "half-life at 8.5 μM", "setting": "Microsomal clearance; t1/2 (half life), HLM, individual replicates, time axis in min", "result": 13.4, "unit": "min"}, {"measurement": "half-life at 8.5 μM", "setting": "Microsomal clearance; t1/2 (half life), Mean, HLM, mean of replicates, time axis in min", "result": 12.7, "unit": "min"}, {"measurement": "% Absolute", "setting": "Microsomal clearance; [5]", "result": "122.56% and 99.88% and 106.38% and 105.61%"}, {"measurement": "% Absolute", "setting": "Microsomal clearance; time 5 min, individual replicates", "result": "82.74% and 96.20% and 86.80% and 92.26%"}, {"measurement": "% Absolute", "setting": "Microsomal clearance; [6]", "result": "59.56% and 70.78%"}, {"measurement": "% Absolute", "setting": "Microsomal clearance; [7]", "result": "54.15% and 32.42% and 34.78% and 45.15%"}, {"measurement": "% Absolute", "setting": "Microsomal clearance; time 60 min, -NADPH, individual replicates", "result": "125.64% and 123.20% and 118.26% and 117.65%"}, {"measurement": "% Absolute", "setting": "Microsomal clearance; [8]", "result": "5.58% and 4.76% and 2.71% and 3.01%"}, {"measurement": "Microsomal clearance Cl", "setting": "Microsomal clearance; human liver microsomes, NADPH", "result": "109.81 ± 11.69", "unit": "µL/min"}, {"measurement": "% Free", "setting": "[1]; [2]", "result": "6.33% and 6.14%"}, {"measurement": "% Recovery", "setting": "[1]; individual replicates", "result": "74.81% and 77.04%"}, {"measurement": "% Absolute (Sample_PBS)", "setting": "[1]; PBS compartment, relative to starting concentration of 10 uM, individual replicates", "result": "4.21% and 4.46% and 4.45%"}, {"measurement": "fraction unbound at 4 h, 10 μM", "setting": "[1]; human plasma, individual replicates, read-out: % Bound (converted)", "result": 0.0593}, {"measurement": "recovery at 4 h, 10 µM", "setting": "[1]; [3]", "result": 75.2, "unit": "%"}, {"measurement": "recovery at 4 h, 10 µM", "setting": "[1]; [4]", "result": 75.7, "unit": "%"}, {"measurement": "fraction unbound at 4 h, 10 μM", "setting": "[1]; human, plasma, (Corrected concentration in PBS / Corrected concentration in Plasma) * 100, individual replicates, read-out: % Free", "result": 0.0593}, {"measurement": "fraction unbound at 4 h, 10 μM", "setting": "[1]; human, plasma, human plasma, 37°C, 4 hours, read-out: Plasma protein binding (% bound) (converted)", "result": 0.0613}, {"measurement": "fraction unbound at 4 h, 10 μM", "setting": "[1]; human, plasma, mean of replicates, read-out: % Bound, Mean (converted)", "result": 0.0613}, {"measurement": "fraction unbound at 4 h, 10 μM", "setting": "[1]; human, plasma, mean of replicates, read-out: % Free, Mean", "result": 0.0613}, {"measurement": "% Bound", "setting": "[1]; individual replicates", "result": "93.67% and 93.86%"}, {"measurement": "% Absolute (Sample_Plasma)", "setting": "[1]; plasma compartment, relative to starting concentration of 10 uM, individual replicates", "result": "70.98% and 70.35% and 72.59%"}]}, {"smiles": "Nc1ncnc2c1ncn2[C@@H]1O[C@H](COP(=O)(O)OP(=O)(O)OP(=O)(O)O)[C@@H](O)[C@H]1O", "note": "[ATP]", "values": [{"measurement": "EC50", "setting": "PKCε", "result": 4.2, "unit": "µM"}]}, {"smiles": "CCN(CC)CCOC(=O)c1ccc(N)cc1", "note": "[Procaine, reference compound]", "values": [{"measurement": "% Absolute", "setting": "Plasma stability; [5]", "result": "122.69% and 106.84% and 107.17% and 113.76%"}, {"measurement": "% Absolute", "setting": "Plasma stability; [6]", "result": "0.17% and 0.32% and 0.18%"}, {"measurement": "% Absolute", "setting": "Plasma stability; [7]", "result": 0.00, "unit": "%"}, {"measurement": "% Absolute", "setting": "Plasma stability; [8]", "result": 0.00, "unit": "%"}, {"measurement": "% Absolute", "setting": "Plasma stability; time 180 min, individual replicates", "result": 0.00, "unit": "%"}, {"measurement": "Plasma stability Cl", "setting": "Plasma stability; human plasma, 37°C", "result": "25.29 ± 1.35", "unit": "µL/min"}, {"measurement": "Cl (clearance)", "setting": "Plasma stability; human plasma, individual replicates", "result": "26.280 and 23.303 and 25.557 and 26.005"}, {"measurement": "t1/2 (half life)", "setting": "Plasma stability; human plasma, individual replicates, time axis in min, in min", "result": "1.785 and 1.627 and 1.599"}, {"measurement": "half-life", "setting": "Plasma stability; human plasma, Plasma stability t½ (min), 37°C", "result": "1.65 ± 0.09", "unit": "min"}, {"measurement": "half-life", "setting": "Plasma stability; plasma, t1/2 (half life), Mean, human plasma, mean of replicates, time axis in min", "result": 1.65, "unit": "min"}, {"measurement": "half-life", "setting": "Plasma stability; plasma, t1/2 (half life), human plasma, individual replicates, time axis in min", "result": 1.58, "unit": "min"}]}]}
